From ChEMBL document CHEMBL1201862, “PubChem BioAssay data set” (2004)
Calls of active or inactive are those of the source.

Key:
Beta-galactosidase = Beta-galactosidase (Escherichia coli, UniProt Q8VNN2); assay: PubChem AID 485352; type: functional
[1] = biological target: T1, Type-1 angiotensin II receptor (Homo sapiens, UniProt P30556); assay: antagonism of angiotensin II type 1 receptor – cell-based, uHTS hits, selectivity assay for APJ receptor antagonist project, dose response (AID 463214); type: functional;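 further: antagonist potency against angiotensin II stimulated AT1 response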
T1 sequence (P30556 whole entry): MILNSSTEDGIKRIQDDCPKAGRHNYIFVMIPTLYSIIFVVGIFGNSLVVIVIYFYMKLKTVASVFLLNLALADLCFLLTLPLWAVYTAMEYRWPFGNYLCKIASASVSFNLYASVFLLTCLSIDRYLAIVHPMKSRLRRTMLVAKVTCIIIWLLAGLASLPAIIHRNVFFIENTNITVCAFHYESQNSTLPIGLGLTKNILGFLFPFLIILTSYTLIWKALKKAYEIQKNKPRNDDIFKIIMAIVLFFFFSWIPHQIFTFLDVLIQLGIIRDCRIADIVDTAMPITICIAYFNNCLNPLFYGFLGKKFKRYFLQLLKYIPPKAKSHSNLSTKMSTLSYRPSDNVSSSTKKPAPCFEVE

Cytochrome P450 3A4 = Cytochrome P450 3A4 (Homo sapiens, UniProt P08684);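 further: CYP3A4 tested as one member of a cytochrome P450 panel screen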
[2] = biological target: G-protein coupled receptor 55 (Homo sapiens, UniProt Q9Y2T6); assay: inhibition of LPI-stimulated GPR55 beta-arrestin translocation – imaging, U2OS, beta-arrestin-GFP, LPI agonist, primary screen (AID 2013); type: functional;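 further: antagonist potency measured as reduced agonist-driven arrestin aggregation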
[3] = Luminescence Cell-Based Dose Retest to Confirm Inhibitors of Cancer Stem Cells. [Related pubchem assays (depositor defined):AID2717, AID2721]; type: functional; conditions: Homo sapiens
HEK293 [4] = assay: inhibition of NOD1-driven NF-kB reporter – cell-based, luminescence, uHTS, primary screen (AID 1578); type: functional; conditions: Homo sapiens
HEK293 [5] = assay: cells; type: functional, cell-based; conditions: Homo sapiens
HEK293 [6] = assay: cells; type: functional, cell-based; conditions: Homo sapiens; remark: listed apart in the source
HEK293 [7] = assay: NOD2 signaling inhibitors in MDP-stimulated cells, cell-based, uHTS, luminescence (AID 2001); type: functional; conditions: Homo sapiens
Escherichia coli = assay: microbe, parasite or virus in culture
[8] = biological target: T2, Short transient receptor potential channel 4 (Mus musculus, UniProt Q9QUQ5); assay: calcium entry via TRPC4 opening agents – cell-based, HEK293 TRPC4/mu-opioid, Fluo-4 calcium, dose response (AID 434937); type: functional
T2 sequence (Q9QUQ5 whole entry): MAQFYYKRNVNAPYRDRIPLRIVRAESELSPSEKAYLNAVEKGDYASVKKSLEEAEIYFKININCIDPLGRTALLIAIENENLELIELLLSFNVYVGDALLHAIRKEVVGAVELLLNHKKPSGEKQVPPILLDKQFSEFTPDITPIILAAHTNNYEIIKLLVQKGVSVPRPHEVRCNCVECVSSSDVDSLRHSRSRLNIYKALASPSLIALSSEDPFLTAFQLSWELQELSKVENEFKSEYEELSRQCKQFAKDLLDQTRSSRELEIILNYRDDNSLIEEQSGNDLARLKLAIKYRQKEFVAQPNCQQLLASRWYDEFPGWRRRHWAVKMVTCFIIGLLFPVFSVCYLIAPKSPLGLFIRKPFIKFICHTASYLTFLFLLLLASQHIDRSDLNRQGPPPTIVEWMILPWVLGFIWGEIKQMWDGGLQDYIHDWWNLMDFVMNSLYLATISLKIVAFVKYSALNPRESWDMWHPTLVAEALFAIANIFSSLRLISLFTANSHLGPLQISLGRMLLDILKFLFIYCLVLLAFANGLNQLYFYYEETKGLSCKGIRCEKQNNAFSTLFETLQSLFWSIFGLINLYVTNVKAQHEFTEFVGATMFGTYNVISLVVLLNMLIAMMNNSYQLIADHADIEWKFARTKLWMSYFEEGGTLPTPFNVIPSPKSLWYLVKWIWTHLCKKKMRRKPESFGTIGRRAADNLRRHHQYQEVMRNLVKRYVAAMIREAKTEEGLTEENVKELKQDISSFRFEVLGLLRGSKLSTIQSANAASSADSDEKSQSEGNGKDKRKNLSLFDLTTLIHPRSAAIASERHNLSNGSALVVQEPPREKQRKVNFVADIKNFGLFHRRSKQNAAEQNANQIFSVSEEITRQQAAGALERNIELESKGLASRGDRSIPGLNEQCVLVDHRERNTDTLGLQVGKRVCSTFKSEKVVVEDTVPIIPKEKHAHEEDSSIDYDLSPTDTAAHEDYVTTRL

[9] = decrease of insulin promoter-GFP reporter – imaging, high-content screening, mouse beta cells (AID 1628); type: functional; conditions: MIN6
[10] = test system: Streptococcus sp. 'group A'; assay: Streptococcus pyogenes SK(-)GAS viability under kanamycin – luminescence, BacTiterGlo, confirmation, counter-screen for streptokinase expression inhibitor project, dose response (AID 1900); type: functional, organism-based
[11] = MIN6 cell viability loss – mouse insulinoma, cytotoxicity control, dose response (AID 2122); type: functional;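 further: confirmatory high-throughput counterscreen run to flag cytotoxic compounds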
Streptokinase A = biological target: T3, Streptokinase A (Streptococcus pyogenes serotype M1, UniProt P10520); assay: viability-normalized secreted streptokinase activity reduction – plasminogen activation absorbance, OD405, dose response (AID 1914); type: functional, Streptococcus pyogenes M1 GAS;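 further: secreted streptokinase activity via plasminogen activation per viability signal from cell pellet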
T3 sequence (P10520 whole entry): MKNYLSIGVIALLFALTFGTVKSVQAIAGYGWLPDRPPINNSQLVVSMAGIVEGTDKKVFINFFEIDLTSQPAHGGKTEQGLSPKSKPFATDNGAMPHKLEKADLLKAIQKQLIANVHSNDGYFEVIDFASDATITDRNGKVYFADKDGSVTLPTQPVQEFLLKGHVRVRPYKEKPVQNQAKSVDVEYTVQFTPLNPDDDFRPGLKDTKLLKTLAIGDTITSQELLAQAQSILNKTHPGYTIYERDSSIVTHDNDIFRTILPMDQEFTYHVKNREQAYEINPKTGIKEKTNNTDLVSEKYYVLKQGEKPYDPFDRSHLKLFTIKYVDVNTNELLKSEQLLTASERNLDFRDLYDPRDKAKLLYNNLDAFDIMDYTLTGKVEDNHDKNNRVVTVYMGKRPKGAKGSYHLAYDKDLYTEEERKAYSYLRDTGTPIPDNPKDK

Streptococcus = assay: GAS UMAA2166 growth inhibition – luminescence, BacTiterGlo, counter-screen for streptokinase expression inhibitor project, dose response (AID 1915); type: functional, organism-based;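 further: potency for reduction of bacterial viability or growth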
[12] = luciferase reporter signal suppression in cells – H4 neuroglioma cells, luminescence, dose response (AID 1990); type: functional, cell-based
[13] = Luminescence Cell-Based Dose Response HTS to Identify Inhibitors of 5'UTR Stem-Loop Driven Prion Protein mRNA Translation in H4 Neuroglioblastoma Cells. [Related pubchem assays: 1827 (Project Summary), 1813 (Primary HTS)]; type: functional
[14] = alpha-synuclein stem-loop luciferase translation blockers – H4 neuroglioma cells, luminescence, confirmation (AID 1988); type: functional, cell-based
HEK293 [15] = assay: EBV LMP1 TES2 canonical NF-kB signalling blockers – cell-based, HEK293, luciferase, cherry-pick, dose response (AID 588343); type: functional; conditions: Homo sapiens
INS1 = assay: INS-1E survival protection against cytokine death – cell-based, luminescence, retest, dose response (AID 449756); type: functional; conditions: Rattus norvegicus;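 further: cell death triggered by IL-1 beta plus TNF-alpha plus IFN-gamma mixture; protective hits raise ATP signal compared with cytokine alone wells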
Vero [16] = assay: cells; type: functional, cell-based; conditions: Chlorocebus sabaeus
Vero [17] = assay: cells; type: functional; conditions: Chlorocebus sabaeus
[18] = viability of uninfected HEp-2 cells – cell-based, HTS, cytotoxicity control for RSV inhibitor project, dose response (AID 2410); type: functional; conditions: human respiratory syncytial virus
Paired box protein Pax-8 = Paired box protein Pax-8 (Homo sapiens, UniProt Q06710); assay: PAX8 transcriptional activity inhibition in RMG-I – RMG-I cells, luciferase, cherry-pick, dose response (AID 687027); type: functional, cell-based;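 further: luciferase reporter driven by Pax8 target thyroperoxidase promoter measured by SteadyGlo luminescence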
Paired box protein Pax-8, sequence (Q06710 whole entry): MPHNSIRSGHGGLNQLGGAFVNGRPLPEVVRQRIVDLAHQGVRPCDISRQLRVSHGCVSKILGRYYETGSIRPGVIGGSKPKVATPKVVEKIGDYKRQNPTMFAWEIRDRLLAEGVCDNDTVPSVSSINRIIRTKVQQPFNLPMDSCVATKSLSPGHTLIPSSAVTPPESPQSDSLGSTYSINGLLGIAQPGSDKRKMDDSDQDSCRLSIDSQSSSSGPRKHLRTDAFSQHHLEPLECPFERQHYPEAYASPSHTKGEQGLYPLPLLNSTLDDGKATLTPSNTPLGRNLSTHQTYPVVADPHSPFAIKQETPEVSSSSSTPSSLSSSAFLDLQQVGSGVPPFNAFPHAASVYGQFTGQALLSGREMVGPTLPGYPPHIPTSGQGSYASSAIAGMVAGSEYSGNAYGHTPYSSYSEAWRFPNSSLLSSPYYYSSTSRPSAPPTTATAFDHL

Beta-galactosidase, sequence (Q8VNN2 whole entry): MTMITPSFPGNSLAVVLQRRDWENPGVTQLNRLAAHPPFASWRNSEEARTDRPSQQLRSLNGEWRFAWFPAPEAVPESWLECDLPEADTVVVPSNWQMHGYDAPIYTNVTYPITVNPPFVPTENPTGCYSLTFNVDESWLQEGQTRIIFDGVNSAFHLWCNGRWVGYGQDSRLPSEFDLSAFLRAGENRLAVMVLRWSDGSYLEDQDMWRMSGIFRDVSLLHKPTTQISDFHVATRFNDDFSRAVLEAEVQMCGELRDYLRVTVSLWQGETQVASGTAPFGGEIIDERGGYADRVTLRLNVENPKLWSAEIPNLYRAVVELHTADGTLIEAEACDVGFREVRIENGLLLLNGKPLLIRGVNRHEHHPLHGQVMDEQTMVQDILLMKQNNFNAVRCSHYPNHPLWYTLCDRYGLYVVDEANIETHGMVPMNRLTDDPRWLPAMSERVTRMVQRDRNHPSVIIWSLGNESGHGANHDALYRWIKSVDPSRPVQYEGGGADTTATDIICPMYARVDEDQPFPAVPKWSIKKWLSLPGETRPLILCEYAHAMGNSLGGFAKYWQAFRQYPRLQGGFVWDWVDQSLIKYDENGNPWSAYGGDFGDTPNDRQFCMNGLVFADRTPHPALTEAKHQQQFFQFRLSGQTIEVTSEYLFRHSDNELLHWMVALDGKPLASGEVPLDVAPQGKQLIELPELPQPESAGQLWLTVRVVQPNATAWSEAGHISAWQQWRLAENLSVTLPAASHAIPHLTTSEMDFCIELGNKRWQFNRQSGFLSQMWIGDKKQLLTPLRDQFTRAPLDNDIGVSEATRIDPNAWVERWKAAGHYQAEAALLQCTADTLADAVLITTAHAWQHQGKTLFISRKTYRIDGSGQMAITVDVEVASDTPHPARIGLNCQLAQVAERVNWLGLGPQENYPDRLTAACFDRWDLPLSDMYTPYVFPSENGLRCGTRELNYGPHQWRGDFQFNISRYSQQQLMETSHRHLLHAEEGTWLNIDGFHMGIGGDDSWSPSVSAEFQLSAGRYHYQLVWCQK
Cytochrome P450 3A4, sequence (P08684 whole entry): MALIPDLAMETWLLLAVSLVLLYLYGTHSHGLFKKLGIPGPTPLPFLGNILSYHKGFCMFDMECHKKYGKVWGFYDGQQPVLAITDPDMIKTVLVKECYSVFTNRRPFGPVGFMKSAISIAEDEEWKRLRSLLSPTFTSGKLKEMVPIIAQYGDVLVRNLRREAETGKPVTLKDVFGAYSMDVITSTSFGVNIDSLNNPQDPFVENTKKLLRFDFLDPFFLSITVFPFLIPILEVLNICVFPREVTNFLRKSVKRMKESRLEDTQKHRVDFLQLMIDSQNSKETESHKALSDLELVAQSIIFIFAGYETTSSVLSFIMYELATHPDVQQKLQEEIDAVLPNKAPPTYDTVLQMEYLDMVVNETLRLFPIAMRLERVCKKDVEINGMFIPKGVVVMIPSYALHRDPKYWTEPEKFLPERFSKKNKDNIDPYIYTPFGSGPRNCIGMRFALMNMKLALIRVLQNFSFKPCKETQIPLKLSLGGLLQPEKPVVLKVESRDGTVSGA
G-protein coupled receptor 55, sequence (Q9Y2T6 whole entry): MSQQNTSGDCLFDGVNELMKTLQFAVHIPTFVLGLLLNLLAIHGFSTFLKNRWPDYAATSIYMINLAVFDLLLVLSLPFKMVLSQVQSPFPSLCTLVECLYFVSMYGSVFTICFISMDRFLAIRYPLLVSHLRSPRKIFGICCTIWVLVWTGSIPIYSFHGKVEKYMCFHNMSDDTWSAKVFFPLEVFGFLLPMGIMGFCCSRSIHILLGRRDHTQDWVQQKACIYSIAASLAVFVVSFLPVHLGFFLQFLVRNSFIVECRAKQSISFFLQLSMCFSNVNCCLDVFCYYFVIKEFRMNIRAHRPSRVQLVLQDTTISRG

## Cc1ccc(C(=O)COC(=O)CNC(=O)C(c2ccccc2)c2ccccc2)cc1[N+](=O)[O-]
Beta-galactosidase
  EC50: > 40 µM (inactive)
[1]
  IC50: 29.5 µM (not active)
Cytochrome P450 3A4
  AC50: 15.8 µM (inconclusive)

## O=C1Nc2ccccc2/C1=N/c1ccc(Br)cc1
Beta-galactosidase
  EC50: > 40 µM (inactive)
[1]
  IC50: 7.4 µM (active)

## CC(C)N(C(=O)CSc1nc2ccccc2n1-c1ccccc1)C(C)C
[2]
  IC50: 3.82 µM (active)
[3]
  AC50: 5.12 µM (active)

## Cc1noc2ncnc(N3CCN(c4cccc(Cl)c4)CC3)c12
HEK293 [4]
  EC50: 10.4 µM (active)
HEK293 [5]
  IC50: 8.79 µM (active)
HEK293 [6]
  IC50: > 20 µM (inactive)
HEK293 [7]
  IC50: 10.3 µM (inactive)

## CCOc1ccc(NC2=c3c(Br)c(C)ccc3=NC2=O)cc1
Beta-galactosidase
  EC50: > 40 µM (inactive)
[1]
  IC50: 7.77 µM (active)

## Cc1ccc(OCCOCCNC(C)(C)C)c([N+](=O)[O-])c1
Escherichia coli
  AC50: 46.9 µM (active)

## COc1ccc(C(CNC(=O)Cc2ccc(-c3ccccc3)cc2)N(C)C)cc1 (configuration not stated)
[8]
  EC50: 0.267 µM (active)

## Cc1cc(OCCCn2ccnc2)ccc1[N+](=O)[O-]
[8]
  EC50: 4.73 µM (active)

## Brc1ccc2[nH]c3c(N4CCc5ccccc5C4)ncnc3c2c1
[9]
  IC50: 1.43 µM (active)
[10]
  EC50: 5.55 µM (active)
[11]
  IC50: 1.28 µM (active)
Streptokinase A
  EC50: 10.9 µM (active)
Streptococcus
  EC50: > 150 µM (not active)
[3]
  AC50: 20.4 µM (active)

## Cc1[nH]n(-c2ccc(Br)cc2)c(=O)c1/C=N/NC(=O)c1ccccc1
[12]
  EC50: 7.9 µM (active)
[10]
  EC50: 0.593 µM (active)
[13]
  EC50: 26.6 µM (active)
[14]
  EC50: 0.889 µM (active)
Streptococcus
  EC50: 1.92 µM (active)
HEK293 [15]
  AC50: 3.72 µM (active)
INS1
  AC50: 0.898 µM (active)

## Cc1cc2cc(CN(CCN(C)C)C(S)=NCc3ccco3)c(O)nc2cc1C
Vero [16]
  IC50: 10.4 µM (active)
Vero [17]
  CC50: > 25 µM (active)

## C[C@H]1CC[C@H]2C(=O)N3[C@H](c4ccccc4Br)[C@@H](C)CC[C@H]3C(=O)N2[C@@H]1c1ccccc1Br
[9]
  IC50: 2.32 µM (active)
[11]
  IC50: 4.2 µM (active)

## C=CCN1C(=O)c2ccc(C(=O)N3CCC(C(N)=O)CC3)cc2C1=O
Escherichia coli
  AC50: 57.7 µM (active)

## CC1CCCN(C(=O)c2nn(C)c3c2CSc2ccccc2-3)C1 (configuration not stated)
Escherichia coli
  AC50: 48.3 µM (active)

## CCCOc1ccccc1/C=C1\SC(N2CCCCC2)=NC1=O
[18]
  CC50: 44.7 µM (active)
Vero [16]
  IC50: 5.33 µM (active)
Vero [17]
  CC50: > 25 µM (active)

## CC12CCC3C(CCC4(O)CC(O)CCC34C=NO)C1(O)CCC2C1=COC(=O)C1 (configuration not stated)
Vero [16]
  IC50: > 25 µM (active)
Vero [17]
  CC50: 0.62 µM (active)
Paired box protein Pax-8
  AC50: 1.12 µM (active)

## CCCCCSc1nnc2c(n1)OC(c1cccn1C)N(C(C)=O)c1ccccc1-2 (configuration not stated)
[8]
  EC50: 10.6 µM (active)
